From patent publication US9918963B2, “Therapeutic agent for disease based on inhibitory effect of macrophage migration inhibitory factor” (TOYAMA CHEMICAL CO., LTD., priority 2013, dated 2018)

Biological target: T1, MIF (Homo sapiens, UniProt P14174)
T1 construct: (catalogue number not given); host or cells: E. coli BL21 Star (DE3)
T1 sequence (P14174 2-115 limits assumed): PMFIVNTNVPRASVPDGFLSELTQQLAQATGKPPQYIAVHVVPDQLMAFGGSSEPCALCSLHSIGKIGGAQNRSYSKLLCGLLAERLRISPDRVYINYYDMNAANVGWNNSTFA
Assay: Inhibition of MIF tautomerase activity (L-dopachrome methyl ester, absorbance at 475 nm)
Assay type: biochemical
Conditions: 30 μmol/L test substance, 10 to 50 nmol/L MIF, pH 6.2, control = 100%; read-out: Inhibition Rate of Tautomerase Reaction
Description: The inhibitory effect of test substances against tautomerase activity of MIF was evaluated by referring to a method of Healy et al. (Cancer Epidemiology Biomarkers and Prevention, 2011, vol. 20, pp. 1516-1523).
In this method, tautomeric reaction from L-3,4-dihydroxyphenylalanine methyl ester (L-dopachrome methyl ester, colored) to 5,6-hydroxyindole-2-carboxylic acid methyl ester (no color) is measured as a change in absorbance at 475 nm.
As an enzyme source, recombinant MIF manufactured by Abcam Plc. or MIF produced and purified by referring to a method of Lubetsky et al. (The Journal of Biological Chemistry, 2002, vol. 277, pp. 24976-24982) was used. A purification method for MIF is described below.
The pET15b vector (Merck) into which the full length gene sequence of MIF had been inserted was transfected E. coli BL21 Star (DE3) strain (Life Technologies Corporation). […] The E. coli were resuspended in buffer (pH 7.5) containing 20 mmol/L Tris (Wako Pure Chemical Industries, Ltd.), 20 mmol/L sodium chloride (Wako Pure Chemical Industries, Ltd.) and 1 mmol/L dithiothreitol (Wako Pure Chemical Industries, Ltd.), and the resultant was subjected to ultrasonic lysis and centrifugation at 15000 rpm for 10 minutes. The thus obtained supernatant was filtered using a 0.20 μm filter, and was allowed to pass through HiTrap Q HP and HiTrap SP HP columns (GE Healthcare Japan Corporation), so as to separate flow-through fractions each of 5 mL. Each of 10 μL of the separated fractions was subjected to the electrophoresis using 5 to 20% polyacrylamide gel (Wako Pure Chemical Industries, Ltd.), and all proteins were stained with Coomassie brilliant blue reagent (Bio-Rad Laboratories, Inc.). On the basis of results thus obtained, a fraction containing a large amount of MIF and containing least amount of other proteins was selected as purified MIF. The concentration of MIF protein was measured by using BCA protein assay reagent (Thermo Fisher Scientific K. K.).
Inhibitory effect of each test substance against MIF tautomerase activity was measured as follows.
A final concentration of 10 to 50 nmol/L of MIF and a final concentration of 30 μmol/L of each test substance or 0.5% dimethyl sulfoxide (Wako Pure Chemical Industries, Ltd.) as a control were added to buffer (pH 6.2) containing 50 mmol/L Bis-Tris (Dojindo Laboratories) and 1 mmol/L EDTA (Dojindo Laboratories), and reaction was performed at room temperature for 15 minutes to give a reaction solution 1.
On the other hand, 1/20 volume of 12 mmol/L L-3,4-dihydroxyphenylalanine methyl ester (Sigma Aldrich) and 1/20 volume of 24 mmol/L sodium periodate (Wako Pure Chemical Industries, Ltd.) were added to buffer having the same composition as that used for obtaining the reaction solution 1, to give a reaction solution 2.
Next, the reaction solution 1 and the reaction solution 2 were mixed, and the temporal change of absorbance at 475 nm of the obtained mixture was immediately measured.
The difference of the absorbencies between the at about 1 minute after the measurement start and at about 5 minutes after was obtained. Assuming that the absorbance change of the control is 100%, an inhibiting rate of the tautomerase reaction in presence of=each test substance was calculated.

## CS(=O)(=O)Nc1cc2occ(NC=O)c(=O)c2cc1Oc1ccccc1 [Compound A, N-[7-[(methylsulfonyl)amino]-4-oxo-6-phenoxy-4H-1-benzopyran-3-yl]formamide]
  inhibition at 30 µM: 50 to 75%
